Measured values as given in patent US20040166575A1, “Inosine producing bacterium belonging to the genus Bacillus and method for producing inosine” (priority 2003, published 2004).
“And” between values parts separate entries of the source, which are not always exact repeats. Equal values may be shown once.

Legend:
[1] = system: Bacillus subtilis recombinant strain KMBS16 (purR, purA, deoD deficient); assay: Assay for degree of 6-ethoxypurine resistance: colony growth on minimal medium plate, parent strain; type: cell-based; conditions: for Relative growth degree / Diameter of colony: KMBS16; for Relative growth degree: colony diameter with 2000 mg/L 6-ethoxypurine / without ×100; for Diameter of colony: minimal medium plate containing 6-ethoxypurine (2000 μg/mL)
[2] = system: 6-ethoxypurine-resistant strain EP1 (AJ13937); assay: Assay for degree of 6-ethoxypurine resistance: colony growth on minimal medium plate, EP1 strain; type: cell-based, Bacillus subtilis; conditions: for Relative growth degree / Diameter of colony: EP1; for Relative growth degree: colony diameter with 2000 mg/L 6-ethoxypurine / without ×100; for Diameter of colony: minimal medium plate containing 6-ethoxypurine (2000 μg/mL)
[3] = system: 6-ethoxypurine-resistant strain EP2; assay: Assay for degree of 6-ethoxypurine resistance: colony growth on minimal medium plate, EP2 strain; type: cell-based, Bacillus subtilis; conditions: for Relative growth degree / Diameter of colony: EP2; for Relative growth degree: colony diameter with 2000 mg/L 6-ethoxypurine / without ×100; for Diameter of colony: minimal medium plate containing 6-ethoxypurine (2000 μg/mL)
Protocol: Relative growth degree (%)=[colony diameter (mm) observed in the medium containing 6-ethoxypurine]/[colony diameter (mm) observed in the medium not containing 6-ethoxypurine]×100
The Bacillus subtilis recombinant strain KMBS16 deficient in the purine operon repressor gene (purR), succinyl-AMP synthase gene (purA) and purine nucleoside phosphorylase gene (deoD) was treated with 400 μg/ml of nitrosoguanidine (NTG) at 37° C. for 30 minutes. Then, the NTG-treated cell suspension was spread on a minimal medium (20 g/L of glucose, 5 g/L of ammonium chloride, 4 g/L of potassium dihydrogenphosphate, 0.01 g/L of ferrous sulfate, 0.01 g/L of manganese sulfate, 0.5 g/L of sodium citrate, 1.0 g/L of L-glutamic acid, 0.1 g/L of adenine, 50 mg/L of tryptophan, pH 7.0) plate containing 2000 mg/L of 6-ethoxypurine, and the cells were cultured at 37° C. for 24 hours. […] The EP1 strain was given a private number of AJ13937. This strain was deposited at the independent administrative agency, National Institute of Advanced Industrial Science and Technology, International Patent Organism Depositary (Tsukuba Central 6, 1-1, Higashi 1-Chome, Tsukuba-shi, Ibaraki-ken, 305-8566, Japan) on Dec. 25, 2001 and received an accession number of FERM P-18665. Then, it was transferred to an international deposit under the provisions of the Budapest Treaty on Jan. 14, 2004, and received an accession number of FERM BP-08595.
Degree of 6-ethoxypurine resistance of the mutant strain obtained as described above was examined in detail. The parent strain and the mutant strain were adenine auxotrophic, and the drug used was a purine analogue. Therefore, the amount of adenine added to the minimal medium was limited to the required minimum level (2 mg/L in this example).
The 6-ethoxypurine-resistant strains (EP1 strain and EP2 strain) and the parent strain KMBS16 were each inoculated into the minimum liquid medium and cultured overnight at 34° C. The cells were separated from the culture broth by centrifugation, washed three times with the minimal medium and suspended again in the same medium. The suspension was appropriately diluted with the same medium and spread on a minimal medium plate and a minimal medium plate containing 2000 mg/L of 6-ethoxypurine, and the cells were cultured at 34° C. […] The culture was continued even thereafter, and diameters of several single colonies were measured after […] to 66 hours. An average of colony diameters was calculated for each strain, and the relative growth degree was calculated according to the aforementioned equation.
In the tables, the symbol “−” means that no colony could be confirmed, and the symbol “±” means that since the colonies were indefinite, the diameters could not be measured.

Compound: CCOc1ncnc2nc[nH]c12 [6-ethoxypurine]
- Relative growth degree ([1]; 0 hr): 0%
- Relative growth degree ([1]; 42 hr): 50.0% and 40.0%
- Relative growth degree ([1]; 45 hr): 58.3% and 41.7%
- Relative growth degree ([1]; 48 hr): 66.7% and 50.0%
- Relative growth degree ([1]; 52 hr): 66.7%
- Relative growth degree ([1]; 66 hr): 62.5% and 50.0%
- Diameter of colony ([1]; 34° C., 28 hr): −
- Diameter of colony ([1]; 34° C., 42 hr): 0.50 mm and 0.40 mm
- Diameter of colony ([1]; 34° C., 45 hr): 0.70 mm and 0.50 mm
- Diameter of colony ([1]; 34° C., 48 hr): 1.00 mm and 0.75 mm
- Diameter of colony ([1]; 34° C., 52 hr): 1.00 mm
- Diameter of colony ([1]; 34° C., 66 hr): 1.25 mm and 1.00 mm
- colony formation after 24 hours ([1]; parent strain KMBS16, minimal medium plate containing 2000 mg/L of 6-ethoxypurine, 34° C., 24 hours): no colony was confirmed
- Relative growth degree ([2]; 0 hr): 0%
- Relative growth degree ([2]; 42 hr): 80.0% and 100.0%
- Relative growth degree ([2]; 45 hr): 83.3%
- Relative growth degree ([2]; 48 hr): 80.0%
- Relative growth degree ([2]; 52 hr): 100.0%
- Diameter of colony ([2]; 34° C., 28 hr): ±
- Diameter of colony ([2]; 34° C., 42 hr): 1.00 mm and 0.80 mm
- Diameter of colony ([2]; 34° C., 45 hr): 1.20 mm and 1.00 mm
- Diameter of colony ([2]; 34° C., 48 hr): 1.50 mm and 1.20 mm
- Diameter of colony ([2]; 34° C., 52 hr): 1.50 mm
- Diameter of colony ([2]; 34° C., 66 hr): 2.00 mm and 2.50 mm
- colony formation after 24 hours ([2]; EP1 strain, minimal medium plate containing 2000 mg/L of 6-ethoxypurine, 34° C., 24 hours): minute colonies were confirmed
- Relative growth degree ([3]; 0 hr): 0%
- Relative growth degree ([3]; 42 hr): 100.0%
- Diameter of colony ([3]; 34° C., 28 hr): ±
- Diameter of colony ([3]; 34° C., 42 hr): 1.00 mm
- Diameter of colony ([3]; 34° C., 45 hr): 1.20 mm
- Diameter of colony ([3]; 34° C., 48 hr): 1.50 mm
- Diameter of colony ([3]; 34° C., 52 hr): 1.50 mm
- Diameter of colony ([3]; 34° C., 66 hr): 2.00 mm
- colony formation after 24 hours ([3]; EP2 strain, minimal medium plate containing 2000 mg/L of 6-ethoxypurine, 34° C., 24 hours): minute colonies were confirmed
